Measurements reported in paper PMC9004346, “Development of small cyclic peptides targeting the CK2α/β interface” (Chemical Communications (Cambridge, England), 2022).
*1 amine or outer side, *2 acyl side, *3 side chain or, on linkers, in order; H or OH if unused. Where a SMILES comes first, the peptide text is derived from it. Bridges are numbered along the chain shown (N, C = ends). [ ]: non-standard residue; d: D form. Trp(2-yl) = O=C([C@H](Cc1c([*:3])[nH]c2ccccc12)N[*:1])[*:2]; hCys = N[C@@H](CCS)C(=O)O

Target: T1, CK2α (Homo sapiens, UniProt P68400, K74A/K75A/K76A/R21S)
T1 construct: CK2α_KA (residues 2-329) contained four mutations; made in house
T1 sequence (P68400 2-329 R21S/K74A/K75A/K76A): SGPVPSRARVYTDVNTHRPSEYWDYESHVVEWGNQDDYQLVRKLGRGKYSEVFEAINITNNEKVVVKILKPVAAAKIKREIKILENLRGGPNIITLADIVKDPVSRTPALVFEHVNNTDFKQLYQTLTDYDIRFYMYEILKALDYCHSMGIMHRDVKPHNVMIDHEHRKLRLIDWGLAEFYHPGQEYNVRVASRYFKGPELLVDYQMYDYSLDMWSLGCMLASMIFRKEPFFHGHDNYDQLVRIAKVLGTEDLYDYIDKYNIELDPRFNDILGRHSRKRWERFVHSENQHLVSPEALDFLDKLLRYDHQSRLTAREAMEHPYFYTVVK
Assay: Isothermal titration calorimetry (ITC) binding to CK2α
Details: 25 °C, CK2α_KA
From the text: Ligand efficiency (LE) is a commonly used statistic to evaluate and compare the effectiveness of drug candidates.17 Mathematically, it is related to the IC50 of the molecule, as well as the number of heavy atoms (non-hydrogen) it contains, as detailed in Equation 1. 18
Equation 1 Mathematical expression for the ligand efficiencies of compounds.18 pIC50 = -log10(IC50) LE = Number of non ‒ H atoms […]
greatest activity with the fewest heavy atoms.
1.5 Biophysical experiments
1.5.1 Protein expression and purification
Three constructs of CK2α were used in this study. For FP assays, CK2α_WT was used (residues 2-329).
For ITC CK2α_KA construct was used whilst CK2α_FP10 was used for crystallisation purposes. CK2α_KA (residues 2-329) contained four mutations designed to aid crystallisation and solubility by reducing the overall charge of the protein; R21S, K74A, K75A and K76A. CK2α_FP 10 contained one mutation (R21S) and an N-terminal extension […] aimed at mimicking a substrate peptide for CK2α. These constructs were cloned, expressed, and purified as previously described.19 1.5.2 Fluorescence polarisation
IC50’s were determined using a PHERAstar FS plate reader (BMG labtech). The fluorescein probe was measured using 485 nm excitation and 530 nm emission. The fluorescein probe was covalently linked to the N-terminus of the linear CK2β-based peptide RLYGFKIHPMAYQLQ. IC50’s were measured using 500, 167, 16.7, 8.33 and 0 μM of the test peptide at a constant concentration of DMSO. P7C8, P8C9, P+L and P+ were tested at concentrations of 50.0, 16.7, 1.67, 0.833 and 0 μM due to their higher potencies. The experiments were performed in a Corning 384-well plate with final concentrations of 571 nM CK2α_WT (residues 2-329), 7.4 μM fluorescent peptide (fluorescein probe was covalently linked to the N-terminus of the linear CK2β-based peptide RLYGFKIHPMAYQLQ), 200 mM NaCl, 40mM TRIS, 20 mM MgCl2 and pH 7.5. The plates were read after a 45 min incubation period.
1.5.3 Isothermal titration calorimetry
All ITC experiments were performed at 25 °C using a MicroCal ITC-200 (GE Healthcare). […]

CC(=O)N[C@H]1CCSc2[nH]c3ccccc3c2C[C@@H](C(N)=O)NC(=O)[C@H](CCCCN)NC(=O)[C@H](Cc2ccccc2)NC(=O)CNC(=O)[C@H](Cc2ccc(O)cc2)NC(=O)[C@H](CC(C)C)NC(=O)[C@H](CCCNC(=N)N)NC1=O [Peptide P8C9, (hC)C9RLYGFKWC9] (Ac-[hCys]RLYGFK[Trp(2-yl)]-NH2; thioether 1-8)
Kd: 750 nM
